Assay results reported in US6953570B2, “Porphyrins with enhanced multi-photon absorption cross-sections for photodynamic therapy” (Montana State University, priority 2001, dated 2005).

Assay: Singlet oxygen 1Δg→3Σg luminescence after two-photon excitation of the photosensitizer
Format: physicochemical
Settings: air-saturated toluene solution, Ti:sapphire regenerative amplifier output 780 nm
Experimental: As illustrated in FIG. 4(a), the ^1Δg→^3Σg luminescence spectra of molecular oxygen in an air-saturated toluene solution of compound I after both one- and two-photon excitation were measured. The one-photon excitation is represented by the dashed line and the two-photon excitation is shown by the solid line. Both spectra are normalized to unity. For one photon excitation, second harmonics of a Ti:sapphire regenerative amplifier, 390 nm, with an average power intensity of 0.5 W/cm^2 were used, while for two-photon excitation, the output of a Ti:sapphire regenerative amplifier, 780 nm, with an average power intensity of 15 W/cm^2 was used. In both cases, the laser beam was slightly focused into a 1-cm cell to give a cylindrical irradiated volume of ˜1.5 mm diameter. The singlet oxygen luminescence spectrum was measured with a nitrogen-cooled Ge detector coupled with Jobin-Yvon monochromator and a lock-in amplifier.
FIG. 4(b) graphs the dependence of the ^1Δg→^3Σg luminescence intensity (lΔ) on the average illumination intensity, P, of molecular oxygen in an air-saturated toluene solution of compound I after two-photon excitation. The raw experimental data are shown by black squares, with the best power-law fit, lΔ=aP^n with n=2.1±0.1 shown by the dotted line.

Clc1cccc(Cl)c1-c1c2nc(cc3ccc([nH]3)c(-c3ccc(C=Cc4ccc(N(c5ccccc5)c5ccccc5)cc4)cc3)c3nc(cc4ccc1[nH]4)C=C3)C=C2 [Compound I, 5-[4′″-(diphenylamino)-4″-stilbenyl]-15-[2′,6′-dichlorophenyl]-21H, 23H-porphyrin]
exponent n of best power-law fit lΔ=aP^n (1Δg→3Σg luminescence intensity lΔ versus average illumination intensity P): 2.1±0.1
